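Growth conditions: 96-well plates. Treatment: test compound, 48 hours, 5 concentrations. Analysis: linear interpolation between bracketing concentrations; unreached endpoints set to highest concentration. GI50 is the concentration that inhibits growth by half. TGI: total growth inhibition.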
How the values were obtained:
Assay in all cases: NCI-60 cell line screen, 48 h
A549 NSCLC = system: A549 NSCLC
BT-549 breast = system: BT-549 breast
M14 melanoma = system: M14 melanoma
OVCAR-4 ovarian = system: OVCAR-4 ovarian
SF-268 CNS = system: SF-268 CNS
SF-295 CNS = system: SF-295 CNS
SK-MEL-2 melanoma = system: SK-MEL-2 melanoma
SNB-19 CNS = system: SNB-19 CNS
SR leukemia = system: SR leukemia
SW-620 colon = system: SW-620 colon
HCC-2998 colon = system: HCC-2998 colon

Compound | TGI (A549 NSCLC) [µM] | TGI (BT-549 breast) [µM] | TGI (M14 melanoma) [µM] | TGI (OVCAR-4 ovarian) [µM] | TGI (SF-268 CNS) [µM] | TGI (SF-295 CNS) [µM] | TGI (SK-MEL-2 melanoma) [µM] | TGI (SNB-19 CNS) [µM] | TGI (SR leukemia) [µM] | TGI (SW-620 colon) [µM] | TGI (HCC-2998 colon) [µM] | GI50 (BT-549 breast) [µM] | GI50 (M14 melanoma) [µM] | GI50 (OVCAR-4 ovarian) [µM] | GI50 (SF-295 CNS) [µM] | GI50 (SNB-19 CNS) [µM] | GI50 (SR leukemia) [µM] | GI50 (A549 NSCLC) [µM] | GI50 (SF-268 CNS) [µM]
COCCOC(=O)c1c(C)n([O-])c2cc(Cl)c(Cl)cc2[n+]1=O | 35.7 | 67.1 | 41.9 | 30.8 | 59.1 | 84.2 | 72.7 | > 100 | 18.9 | 65.3 |  |  |  |  |  |  |  |  | 
CN1CCc2[nH]c3ccccc3c2C1 | > 100 |  |  | > 100 | > 100 | > 100 | > 100 | > 100 |  | > 100 | > 100 |  |  |  |  |  |  |  | 
COC1=C(OC)C(=O)C(Cc2c(Cl)nc3sc(C)cn23)=C(C)C1=O | 41.8 | 34.2 | 34.5 | 20.6 | 37 | 32.1 | 76.9 | 41.3 | 51 | 47.8 | 39 |  |  |  |  |  |  |  | 
CCCCCCCCCCCCCCCCCCOc1ccccc1CC(=O)OCC[N+]1(C)CCCCC1 |  | 7.1 | 6.58 | 10.5 |  | 9.62 |  | 4.94 | 4.97 |  |  | 2.65 | 2.52 | 2.81 | 2.93 | 2.05 | 1.93 |  | 
OC1(c2cccs2)c2cccc(Cl)c2C(O)(c2cccs2)c2c(Cl)cccc21 (stereo not given) | > 100 | > 100 | > 100 | > 100 | 75 | > 100 | > 100 | > 100 | > 100 | > 100 | > 100 |  |  |  |  |  |  |  | 
CC(CCN)(CCN)[N+](=O)[O-] | > 100 | > 100 | > 100 | > 100 | > 100 | > 100 | > 100 | > 100 | > 100 | > 100 |  |  |  |  |  |  |  |  | 
CCCCCCCCCCCCCCCCCCNC(=O)C(N)Cc1ccc(OCc2ccccc2)cn1 (stereo not given) | 42.6 | 57.3 | 33.3 | 34 | 43.4 | 59.1 | 33.3 | 42.5 |  | 59.4 | 24.2 |  |  |  |  |  |  |  | 
CN1CCOC(c2ccc(Cl)cc2)O1 (stereo not given) | > 100 | > 100 | > 100 | > 100 | > 100 | > 100 | > 100 | > 100 | > 100 | > 100 | > 100 |  |  |  |  |  |  |  | 
CN(C)CCCSc1nc2ccccc2[nH]1 | > 100 | > 100 | > 100 | > 100 | > 100 | > 100 | > 100 | > 100 | > 100 | > 100 | > 100 |  |  |  |  |  |  |  | 
CN(CCCCCl)P(=O)(OCc1ccc([N+](=O)[O-])o1)OC[C@H]1O[C@@H](n2cc(F)c(=O)[nH]c2=O)C[C@@H]1O (stereo not given in full) | > 26.4 | 49.1 | 20 | 33.5 | 13.2 | 3.48 | 36.1 | > 55.3 | 24.2 | > 81.8 |  |  |  |  |  |  |  |  | 
Cn1c2ccccc2n2c(N=O)c(-c3ccccc3)nc12 | 57.6 | 96.6 | 62.2 | > 100 | > 100 | > 100 | > 100 | > 100 | > 100 | > 100 | 28.3 |  |  |  |  |  |  |  | 
O=C(Nc1ccc(Cl)cc1)c1cc2cc(N=Nc3ccccc3Cl)ccc2oc1=O | > 100 |  | 55 | > 100 | > 100 | 91.9 | 47 | > 100 | 34.9 | > 100 | 41.2 |  |  |  |  |  |  |  | 
COc1cc2c(c(O)c1OC)-c1c(cc(OC)c(OC)c1OC)CC(C)C(C)C2 (stereo not given) | > 100 | > 100 | > 100 | > 100 | > 100 | > 100 | > 100 | > 100 | 57 | > 100 | > 100 |  |  |  |  |  |  |  | 
Nc1ncnc2c1ncn2C=C=CCO |  | > 100 | > 100 | > 100 |  | > 100 | > 100 | > 100 | > 100 | > 100 | > 100 |  |  |  |  |  |  |  | 
Cc1ccc(S(=O)(=O)n2cc(-c3cc(C(F)(F)F)ccn3)c3cc(Br)ccc32)cc1 | 51.8 |  | > 100 | 29.7 | 93.9 | 67.7 | 10.8 | 37.5 | > 100 | > 100 | 62.6 |  |  |  |  |  |  |  | 
C=C1c2ccccc2C(=O)c2c1c1c(C(=O)OC)c(O)ccc1n2Cc1ccccc1 | 3.6 | 1.69 | 1.03 | 1.77 | 0.518 | 1.99 | 2.39 | 1.52 |  | 1.42 |  |  |  |  |  |  |  |  | 
CC(C)=CCC/C(C)=C/CC/C(C)=C/CC/C(C)=C/C=C/C=C(\C)CC/C=C(\C)CC/C=C(\C)CCC=C(C)C | > 100 | > 100 | > 100 | > 100 | > 81.4 | > 100 | > 100 | > 100 |  | > 100 | > 100 |  |  |  |  |  |  |  | 
O=C([O-])C[n+]1ccccc1 | > 100 | > 100 | > 100 | > 100 | > 100 | > 100 | > 100 | > 100 |  | > 100 |  |  |  |  |  |  |  |  | 
C=CCN1C(=O)C=C(c2ccccc2)n2ncc3cccc1c32 | > 100 | > 100 | > 100 |  | > 100 | > 100 | > 100 | > 100 | > 100 | > 100 |  |  |  |  |  |  |  |  | 
O=S1(=O)N=C(SCc2ccccc2)N(c2ccccc2)c2ccncc21 | > 100 | 94.4 | > 100 | > 100 | > 100 | > 100 | > 100 | > 100 | > 100 | > 100 | > 100 |  |  |  |  |  |  |  | 
CCOc1ccc(NC(=O)C(=O)CC(=O)c2sc(NNC(C)=O)nc2C)cc1 | > 100 |  | > 100 | > 100 | > 100 | > 100 | > 100 | > 100 | > 100 | > 100 | > 100 |  |  |  |  |  |  |  | 
NN(CC(=O)O)CC(=O)O | > 100 | > 100 | > 100 | > 100 | > 100 | > 100 | > 100 | > 100 |  | > 100 | > 100 |  |  |  |  |  |  |  | 
CCOc1cc(NC(C)=O)ccc1C(=O)NN1C(=O)C(Cl)C1c1ccccc1 (stereo not given) | 33.3 | 25.6 | 27 | 32.7 | 43.8 | 37.1 | 29.9 | 28.4 | 14.3 | 59.6 | 32.3 |  |  |  |  |  |  |  | 
Nc1ncnc2nc[nH]c12 | > 250 |  |  | > 250 | > 250 | > 250 | > 250 | > 146 |  | > 250 | > 191 |  |  |  |  | 105 |  | 75.6 | 143

From PubChem BioAssay (NCI)
